Source: PMC7500638, “Dissecting the antibacterial activity of oxadiazolone-core derivatives against Mycobacterium abscessus” (PLoS ONE, 2020)

Biological target: T1, Ag85CMabs (Ag85C, MAB_0175) (Mycobacteroides abscessus, UniProt B1MEL1)
T1 construct: C-terminal 6His-tag; pMyC vector, expressed in M. smegmatis delta-groEL1
Assay: competitive TAMRA-FP activity-based probe labelling, in-gel fluorescence
Format: binding
Details: covalent; 14 uM enzyme, 1 h preincubation, 10 mM Tris pH 8, 150 mM NaCl, 0.1% Triton X-100; catalytic Ser124

T1 sequence (B1MEL1 entry or part of it): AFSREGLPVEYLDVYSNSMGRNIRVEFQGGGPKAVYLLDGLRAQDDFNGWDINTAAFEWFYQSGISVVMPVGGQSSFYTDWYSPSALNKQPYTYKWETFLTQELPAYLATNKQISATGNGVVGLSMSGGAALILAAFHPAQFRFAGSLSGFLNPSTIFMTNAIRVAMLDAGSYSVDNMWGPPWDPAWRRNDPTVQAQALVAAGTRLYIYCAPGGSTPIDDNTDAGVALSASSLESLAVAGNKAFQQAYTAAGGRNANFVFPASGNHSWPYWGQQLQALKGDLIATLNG

With CC(C)COc1nn(-c2ccc(Oc3ccccc3)cc2)c(=O)o1 [iBpPPOX] the “% loss of TAMRA-FP labelling at E/I 1:75” value was greater than 90%.
